Reference: article PMC4931907 (eLife, 2016)

Experiments:
[1] = test system: AE9a-driven AML cell line; assay: Growth and apoptosis of AE9a cells (trypan blue, annexin V/7AAD); type: cell-based, mouse; conditions: for Apoptosis, annexin V/7AAD double staining: 24 hr
Description: Previously, we reported that the leukemogenicity of the AML1-ETO fusion protein, generated by a t(8;21) translocation in acute myelogenous leukemia, is regulated by p300-mediated acetylation of lysine 43 of the fusion protein ([Wang et al., 2011]).
Figure 4. […] (B) Kasumi-1 and AE9a cells treated or not with salicylate were counted by trypan-blue exclusion under light microscopy. […] The percentage of sub-G1 cells is shown. […] Cells were counted by trypan-blue exclusion under light microscopy. […] DOI: http://dx.doi.org/10.7554/eLife.11156.011
HEK293T cells (ATCC) were maintained in DMEM supplemented with 10% FCS. The viability of Kasumi-1 cells and AE9a mouse leukemia cells was assessed in triplicate by trypan blue exclusion. The Kasumi cell line was isolated and characterized by one of the coauthors (S. Nimer) ([Becker et al., 2008]). All cell lines were tested annually for mycoplasma contamination. Only negative mycoplasma cultures were used during the conduct of these experiments.
Apoptosis was analyzed with an Annexin V-APC/7AAD Apoptosis kit (Becton-Dickinson) according to manufacturer’s instructions. To assess the distribution of nuclear DNA content in the cell-cycle analysis, cells were collected, washed in PBS, fixed overnight in 75% ethanol at –20°C, treated with 1% RNase A for at least 15 min at 37°C, and stained with […] propidium iodide. To monitor CD34 expression, the cells were stained with an allophycocyanin-conjugated anti-CD34 antibody (Becton Dickinson). To monitor CD11b expression, the cells were stained with a phycoerythrin-conjugated anti-CD11b antibody (Beckman-Coulter). To monitor C-kit and Mac-1 expression, the cells were stained with allophycocyanin-conjugated anti-C-kit and phycoerythrin-conjugated anti-Mac-1 antibodies (Becton-Dickinson). Cells were sorted with a Becton-Dickinson FACSCalibur, and the data were analyzed with FlowJo software.

p300 = target: T1, p300 (Homo sapiens, UniProt Q09472); assay: p300 inhibition by direct microfluidic mobility shift analysis, H4(3–14) peptide; type: biochemical; conditions: microfluidic mobility shift, H4(3–14) peptide, 5 μM acetyl-CoA
T1 construct: in vitro acetylation assays with purified histones and a recombinant p300 catalytic domain; purchased Enzo Life Sciences
T1 sequence (Q09472 1287-1663 limits assumed): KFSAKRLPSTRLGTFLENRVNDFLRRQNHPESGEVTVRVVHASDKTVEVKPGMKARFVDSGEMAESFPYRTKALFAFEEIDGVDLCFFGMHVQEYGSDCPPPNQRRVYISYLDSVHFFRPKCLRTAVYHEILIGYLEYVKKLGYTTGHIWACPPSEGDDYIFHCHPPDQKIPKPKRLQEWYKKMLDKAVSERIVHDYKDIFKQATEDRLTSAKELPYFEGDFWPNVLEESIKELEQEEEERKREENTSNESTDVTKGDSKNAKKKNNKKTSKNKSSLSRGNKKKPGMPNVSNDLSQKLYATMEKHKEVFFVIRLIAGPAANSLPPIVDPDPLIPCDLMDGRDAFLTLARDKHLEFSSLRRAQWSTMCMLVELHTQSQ
Procedure: Figure 1. Salicylate inhibits CBP/p300 in vitro. (A) Recombinant p300, CBP, GCN5, or PCAF and histones were incubated with ^14C-labeled acetyl-CoA with or without sodium salicylate, separated by SDS-PAGE, analyzed by autoradiography, and quantified with Image J software. Acetylation levels are relative to those in untreated controls. (B) Thermal stability assay for sodium salicylate binding to the p300 HAT domain. Tm, melting temperature. (C) and (D) Lineweaver-Burk plots showing kinetic analysis of p300 acetyltransferase inhibition by sodium salicylate. Histone acetylation was measured with several concentrations of acetyl-CoA (C) or histone (D) in the presence or absence of sodium salicylate. DOI: http://dx.doi.org/10.7554/eLife.11156.003 Figure 1—figure supplement 1. […] (A) Dose-response data for inhibition of p300 by salicylate and salicyl-CoA. Acetylation of an H4(3–14) peptide was monitored using direct microfluidic mobility shift analysis as previously described ([Montgomery et al., 2014]; [Fanslau et al., 2010]). Error is given as the 95% confidence interval. […] Error is given as the 95% confidence interval. DOI: http://dx.doi.org/10.7554/eLife.11156.004 [drawing 1] TEXT PRINTED IN THE PICTURE: (A) Salicylate: p300 IC50 (mM): 6.12; Confidence Interval [CI95] (mM): 5.2–7.2 | (A) Salicyl-CoA: p300 IC50 (mM): […]; Confidence Interval [CI95] […] (mM): 0.78–1.4 | (B) Diflunisal-CoA: p300 IC50 (mM): 0.02; Confidence Interval [CI95] (mM): 0.02–0.03
Salicyl-CoA and diflunisal-CoA were synthesized from their parent carboxylic acids and HPLC purified according to previously reported methods ([Padmakumar et al., 1997]). The purity of each acyl-CoA was confirmed by analytical HPLC prior immediately prior to utilization ([Montgomery et al., 2014]; [Fanslau et al., 2010]). P300 inhibition assays were performed using direct microfluidic mobility shift analysis as previously described. Briefly, p300 reaction mixture (50 mM HEPES, pH 7.5, 50 mM NaCl, 2 mM EDTA, 2 mM DTT, 0.05% Triton-X-100, 50 nM p300, 2 μM FITC-histone H4 peptide) was plated in 384-well plates and allowed to equilibrate at room temperature for 10 min. Reactions were initiated by addition of acetyl-CoA (final concentration = 5 μM), bringing the final assay volume to 30 μL. Assays were quenched after 10 min (<15% product accumulation) by addition of 5 μL of 0.5 M neutral hydroxylamine and transferred to a Perkin-Elmer Lab-Chip EZ-Reader instrument for analysis. Separation conditions were: downstream voltage of −500 V, upstream voltage of −2500 V, and a pressure of −1.5 psi. Percent conversion was calculated by ratiometric measurement of substrate/product peak heights. Percent activity represents the percent conversion of KAT reactions treated with inhibitors relative to untreated control KAT reactions, and corrected for nonenzymatic acetylation. Dose-response analysis of p300 inhibition was performed in triplicate and analyzed by nonlinear least-squares regression fit to Y = 100/(1 + 10∧(Log IC50 – X)*H), where H = Hill slope (variable). IC50 values represent the concentration that inhibits 50% of KAT activity. Calculations were performed using Prism 6 (GraphPad) software.

Row | Compound | Apoptosis, annexin V/7AAD double staining [1] | IC50 (p300) [mM] | Concentration inhibiting cell proliferation ([1]; trypan-blue exclusion counts) [mM]
1 | O=C(O)c1cc(-c2ccc(F)cc2F)ccc1O [diflunisal] | increased apoptosis in a dose-dependent manner | 1.05 | –
2 | O=C(O)c1ccccc1O [salicylate, salicylic acid] | increased apoptosis | 6.12 | ≥ 1
